Results as given in ChEMBL document CHEMBL1201862, “PubChem BioAssay data set” (2004).
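A five-concentration, 48-hour dose response in 96-well plates underlies each endpoint, interpolated linearly between surrounding concentrations. Here, GI50 denotes the concentration required for 50% inhibition of growth.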 The source made the active and inactive calls. Cut-off read from the data, not from the text of the source: active = GI50 up to about 1.1 µM and inactive = higher.

Legend:
Assay in all cases: growth of human tumour cells (NCI), 48 h
A498 = test system: A498
A549 = test system: A549
ACHN = test system: ACHN
CAKI-1 = test system: CAKI-1
CCRF-CEM = test system: CCRF-CEM
COLO 205 = test system: COLO 205
DU-145 = test system: DU-145
EKVX = test system: EKVX
HCC 2998 = test system: HCC 2998
HCT-116 = test system: HCT-116
HCT-15 = test system: HCT-15
HL-60 = test system: HL-60
HOP-62 = test system: HOP-62
HT-29 = test system: HT-29
Hs-578T = test system: Hs-578T
IGROV-1 = test system: IGROV-1
K562 = test system: K562
LOX IMVI = test system: LOX IMVI
M14 = test system: M14
MCF7 = test system: MCF7
MDA-MB-231 = test system: MDA-MB-231
MDA-MB-435 = test system: MDA-MB-435
MDA-N = test system: MDA-N
MOLT-4 = test system: MOLT-4
Malme-3M = test system: Malme-3M
NCI-H226 = test system: NCI-H226
NCI-H23 = test system: NCI-H23
NCI-H460 = test system: NCI-H460
NCI-H522 = test system: NCI-H522
NCI/ADR-RES = test system: NCI/ADR-RES
OVCAR-4 = test system: OVCAR-4
OVCAR-5 = test system: OVCAR-5
OVCAR-8 = test system: OVCAR-8
PC-3 = test system: PC-3
RPMI-8226 = test system: RPMI-8226
RXF 393 = test system: RXF 393
SF-268 = test system: SF-268
SF-539 = test system: SF-539
SK-MEL-28 = test system: SK-MEL-28
SK-MEL-2 = test system: SK-MEL-2
SK-MEL-5 = test system: SK-MEL-5
SK-OV-3 = test system: SK-OV-3
SN12C = test system: SN12C
SNB-19 = test system: SNB-19
SNB-75 = test system: SNB-75
SR = test system: SR
SW-620 = test system: SW-620
T47D = test system: T47D
TK-10 = test system: TK-10
U-251 = test system: U-251
UACC-62 = test system: UACC-62
UO-31 = test system: UO-31
786-0 = test system: 786-0
KM12 = test system: KM12
OVCAR-3 = test system: OVCAR-3
SF-295 = test system: SF-295
UACC-257 = test system: UACC-257
HOP-92 = test system: HOP-92

Cc1nc2[nH]ncn2c(=O)c1CCO was tested, and the GI50 (A498) was > 10 µM (inactive), the GI50 (A549) was > 10 µM (inactive) and the GI50 (ACHN) was > 10 µM (inactive). For the same compound, the GI50 (CAKI-1) was > 10 µM (inactive), the GI50 (CCRF-CEM) was > 10 µM (inactive) and the GI50 (COLO 205) was > 10 µM (inactive). For the same compound, the GI50 (DU-145) was > 10 µM (inactive), the GI50 (EKVX) was > 10 µM (inactive) and the GI50 (HCC 2998) was > 10 µM (inactive). For the same compound, the GI50 (HCT-116) was > 10 µM (inactive), the GI50 (HCT-15) was over 10 µM and the GI50 (HL-60) was > 10 µM (inactive). For the same compound, the GI50 (HOP-62) was > 10 µM (inactive), the GI50 (HT-29) was > 10 µM (inactive) and the GI50 (Hs-578T) was > 10 µM (inactive). For the same compound, the GI50 (IGROV-1) was > 10 µM (inactive), the GI50 (K562) was > 10 µM (inactive) and the GI50 (LOX IMVI) was > 10 µM (inactive). For the same compound, the GI50 (M14) was > 10 µM (inactive), the GI50 (MCF7) was > 10 µM (inactive) and the GI50 (MDA-MB-231) was > 10 µM (inactive). For the same compound, the GI50 (MDA-MB-435) was > 10 µM (inactive), the GI50 (MDA-N) was > 10 µM (inactive) and the GI50 (MOLT-4) was > 10 µM (inactive). The GI50 (Malme-3M) was > 10 µM (inactive), the GI50 (NCI-H226) was > 10 µM (inactive) and the GI50 (NCI-H23) was > 10 µM (inactive). The GI50 (NCI-H460) was > 10 µM (inactive), the GI50 (NCI-H522) was > 10 µM (inactive) and the GI50 (NCI/ADR-RES) was > 10 µM (inactive). For the same compound, the GI50 (OVCAR-4) was > 10 µM (inactive), the GI50 (OVCAR-5) was > 10 µM (inactive) and the GI50 (OVCAR-8) was > 10 µM (inactive). For the same compound, the GI50 (PC-3) was > 10 µM (inactive), the GI50 (RPMI-8226) was > 10 µM (inactive) and the GI50 (RXF 393) was > 10 µM (inactive). For the same compound, the GI50 (SF-268) was > 10 µM (inactive), the GI50 (SF-539) was > 10 µM (inactive) and the GI50 (SK-MEL-28) was 2.56 µM (inactive). The GI50 (SK-MEL-2) was > 10 µM (inactive), the GI50 (SK-MEL-5) was > 10 µM (inactive) and the GI50 (SK-OV-3) was > 10 µM (inactive). The GI50 (SN12C) was > 10 µM (inactive), the GI50 (SNB-19) was > 10 µM (inactive) and the GI50 (SNB-75) was > 10 µM (inactive). The GI50 (SR) was > 10 µM (inactive), the GI50 (SW-620) was > 10 µM (inactive) and the GI50 (T47D) was > 10 µM (inactive). The GI50 (TK-10) was > 10 µM (inactive), the GI50 (U-251) was > 10 µM (inactive) and the GI50 (UACC-62) was > 10 µM (inactive). The GI50 (UO-31) was > 10 µM (inactive).
With COc1cc(OC)c2nc(C)c3c(c2c1)SCC3 the GI50 (786-0) was 19.5 µM (inactive), the GI50 (A498) was 18.6 µM (inactive) and the GI50 (A549) was 21.1 µM (inactive). The GI50 (ACHN) was 18.7 µM (inactive), the GI50 (CAKI-1) was 16.1 µM (inactive) and the GI50 (CCRF-CEM) was > 100 µM (inactive). For the same compound, the GI50 (COLO 205) was > 100 µM (inactive), the GI50 (DU-145) was 44.8 µM (inactive) and the GI50 (EKVX) was 10.1 µM (inactive). The GI50 (HCC 2998) was 46.9 µM (inactive), the GI50 (HCT-116) was 22.2 µM (inactive) and the GI50 (HCT-15) was 42.3 µM. For the same compound, the GI50 (HL-60) was 78 µM (inactive), the GI50 (HOP-62) was 18.2 µM (inactive) and the GI50 (HT-29) was 40.6 µM (inactive). The GI50 (Hs-578T) was 19.8 µM (inactive), the GI50 (IGROV-1) was 17.2 µM (inactive) and the GI50 (K562) was > 100 µM (inactive). For the same compound, the GI50 (KM12) was 68.5 µM (inactive), the GI50 (LOX IMVI) was 32.7 µM (inactive) and the GI50 (M14) was 41.4 µM (inactive). The GI50 (MCF7) was 15.6 µM (inactive), the GI50 (MDA-MB-231) was 21.1 µM (inactive) and the GI50 (MDA-MB-435) was 25.5 µM (inactive). For the same compound, the GI50 (MDA-N) was 28.8 µM (inactive), the GI50 (MOLT-4) was > 100 µM (inactive) and the GI50 (Malme-3M) was 24.7 µM (inactive). For the same compound, the GI50 (NCI-H226) was 20.4 µM (inactive), the GI50 (NCI-H23) was 31.9 µM (inactive) and the GI50 (NCI-H460) was 23.7 µM (inactive). The GI50 (NCI-H522) was 36.1 µM (inactive), the GI50 (NCI/ADR-RES) was 27.4 µM (inactive) and the GI50 (OVCAR-3) was 19.2 µM (inactive). The GI50 (OVCAR-4) was 18.8 µM (inactive), the GI50 (OVCAR-5) was 29.6 µM (inactive) and the GI50 (OVCAR-8) was 19 µM (inactive). For the same compound, the GI50 (PC-3) was 20 µM (inactive), the GI50 (RPMI-8226) was 25.9 µM (inactive) and the GI50 (RXF 393) was 24.3 µM (inactive). The GI50 (SF-268) was 19.4 µM (inactive), the GI50 (SF-295) was 27.5 µM (inactive) and the GI50 (SF-539) was 18.5 µM (inactive). The GI50 (SK-MEL-28) was 31 µM (inactive), the GI50 (SK-MEL-2) was 27.7 µM (inactive) and the GI50 (SK-MEL-5) was 21.3 µM (inactive). For the same compound, the GI50 (SK-OV-3) was 27.7 µM (inactive), the GI50 (SN12C) was 25.5 µM (inactive) and the GI50 (SNB-19) was 15.6 µM (inactive). For the same compound, the GI50 (SR) was 20.5 µM (inactive), the GI50 (SW-620) was 27 µM (inactive) and the GI50 (T47D) was 26.3 µM (inactive). For the same compound, the GI50 (TK-10) was 19.5 µM (inactive), the GI50 (U-251) was 29.8 µM (inactive) and the GI50 (UACC-257) was 31.7 µM (inactive). For the same compound, the GI50 (UACC-62) was 22.9 µM (inactive) and the GI50 (UO-31) was 21.9 µM (inactive).
CN(C)c1ccc(C2CC(C)(O)Oc3cc4c(cc32)OCO4)cc1 (centres undefined) was tested, and the GI50 (786-0) was 43.7 µM (inactive), the GI50 (A549) was 43.7 µM (inactive) and the GI50 (ACHN) was 70.6 µM (inactive). The GI50 (CAKI-1) was 66.2 µM (inactive), the GI50 (CCRF-CEM) was 33.6 µM (inactive) and the GI50 (COLO 205) was 23.4 µM (inactive). For the same compound, the GI50 (DU-145) was > 100 µM (inactive), the GI50 (EKVX) was 48.9 µM (inactive) and the GI50 (HCC 2998) was 32.4 µM (inactive). The GI50 (HCT-116) was 34.5 µM (inactive), the GI50 (HCT-15) was 29.9 µM and the GI50 (HL-60) was 46.3 µM (inactive). The GI50 (HOP-62) was 62.4 µM (inactive), the GI50 (HOP-92) was 25.9 µM (inactive) and the GI50 (HT-29) was 26.9 µM (inactive). For the same compound, the GI50 (Hs-578T) was 61 µM (inactive), the GI50 (IGROV-1) was 1.73 µM (inactive) and the GI50 (K562) was 48 µM (inactive). The GI50 (KM12) was 30 µM (inactive), the GI50 (LOX IMVI) was 31.6 µM (inactive) and the GI50 (M14) was 39.1 µM (inactive). For the same compound, the GI50 (MCF7) was 38.4 µM (inactive), the GI50 (MDA-MB-231) was 18.2 µM (inactive) and the GI50 (MDA-MB-435) was 13.6 µM (inactive). For the same compound, the GI50 (MDA-N) was 18.6 µM (inactive), the GI50 (MOLT-4) was > 100 µM (inactive) and the GI50 (Malme-3M) was 67 µM (inactive). The GI50 (NCI-H226) was 3.86 µM (inactive), the GI50 (NCI-H23) was 71.8 µM (inactive) and the GI50 (NCI-H460) was 40.9 µM (inactive). The GI50 (NCI-H522) was 19.1 µM (inactive), the GI50 (NCI/ADR-RES) was 35.2 µM (inactive) and the GI50 (OVCAR-3) was 64.3 µM (inactive). The GI50 (OVCAR-5) was 75.9 µM (inactive), the GI50 (OVCAR-8) was 29.5 µM (inactive) and the GI50 (PC-3) was 39.4 µM (inactive). The GI50 (RPMI-8226) was 19.7 µM (inactive), the GI50 (RXF 393) was 32.7 µM (inactive) and the GI50 (SF-268) was 46.7 µM (inactive). For the same compound, the GI50 (SF-295) was 29.1 µM (inactive), the GI50 (SF-539) was 34.1 µM (inactive) and the GI50 (SK-MEL-28) was 36.9 µM (inactive). For the same compound, the GI50 (SK-MEL-2) was 22.2 µM (inactive), the GI50 (SK-MEL-5) was 30.6 µM (inactive) and the GI50 (SK-OV-3) was 48.8 µM (inactive). For the same compound, the GI50 (SN12C) was 25.4 µM (inactive), the GI50 (SNB-19) was 98.9 µM (inactive) and the GI50 (SNB-75) was 25.3 µM (inactive). For the same compound, the GI50 (SR) was 9.33 µM (inactive), the GI50 (SW-620) was 35.3 µM (inactive) and the GI50 (T47D) was 48.6 µM (inactive). The GI50 (TK-10) was 59.3 µM (inactive), the GI50 (U-251) was 43.8 µM (inactive) and the GI50 (UACC-257) was 62.4 µM (inactive). For the same compound, the GI50 (UACC-62) was 21.6 µM (inactive) and the GI50 (UO-31) was 30.7 µM (inactive).
